For 1 substance, nocturnal chow intake results are on record in publication doi:10.1101/2020.07.11.198341v1 (bioRxiv, 2020).

This experiment concerns male C57Bl6J mice. The experiment is described as follows: Metabolic efficiency. The following applies: insulin 20 nmol/kg daily i.p., n=8. Type of experiment: in vivo.

As for insulin, the nocturnal chow intake entry is “slight decrease”.
